Values of other authors as cited in publication PMC4331071 (Clinical cancer research : an official journal of the …, 2013).

Test system: GRP78

efficacy among GRP78 binding peptides: highest efficacy
Sequence: WIFPWIQL
